In ChEMBL document CHEMBL1129782, “Azole phenoxy hydroxyureas as selective and orally active inhibitors of 5-lipoxygenase” (J Med Chem, 1996):

Experiments:
[1] = target: T1, Polyunsaturated fatty acid 5-lipoxygenase (Rattus norvegicus) (UniProt P12527); assay: Ex vivo inhibitory activity at an peroral dose of 10 mg/Kg against LTB4 biosynthesis in rat blood, after pretreatment period of 6 hr; assay type: functional
T1 sequence (whole entry): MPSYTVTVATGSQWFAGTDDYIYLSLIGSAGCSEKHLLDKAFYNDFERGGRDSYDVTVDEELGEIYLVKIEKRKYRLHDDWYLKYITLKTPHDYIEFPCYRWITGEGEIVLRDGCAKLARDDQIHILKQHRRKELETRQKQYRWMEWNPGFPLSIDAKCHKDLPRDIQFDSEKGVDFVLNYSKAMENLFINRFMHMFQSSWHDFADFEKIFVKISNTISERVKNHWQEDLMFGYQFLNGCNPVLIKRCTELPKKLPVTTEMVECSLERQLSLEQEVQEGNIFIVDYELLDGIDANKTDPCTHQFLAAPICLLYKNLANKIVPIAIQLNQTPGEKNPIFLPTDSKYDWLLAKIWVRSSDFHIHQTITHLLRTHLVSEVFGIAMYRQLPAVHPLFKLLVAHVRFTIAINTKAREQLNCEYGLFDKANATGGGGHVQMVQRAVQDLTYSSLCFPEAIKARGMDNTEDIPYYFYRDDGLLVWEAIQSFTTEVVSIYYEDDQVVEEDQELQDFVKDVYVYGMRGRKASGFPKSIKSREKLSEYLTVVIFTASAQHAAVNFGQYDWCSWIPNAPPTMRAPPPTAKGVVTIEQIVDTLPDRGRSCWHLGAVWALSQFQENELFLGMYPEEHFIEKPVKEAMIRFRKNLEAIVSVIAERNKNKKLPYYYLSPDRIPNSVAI

[2] = target: T1, Polyunsaturated fatty acid 5-lipoxygenase (Rattus norvegicus); assay: Activity against LTB4 biosynthesis in the rat RPAR pleurisy model po (10 mg/kg); assay type: functional, organism-based
[3] = species: Homo sapiens; assay: Inhibition of LTB4 biosynthesis at 1 uM, in calcium ionophore-stimulated human whole blood leukocyte (HBL) assay.; assay type: functional
[4] = system: Cavia porcellus; assay: Intravenous effective dose against antigen induced bronchoconstriction in the guinea pig; assay type: functional
[5] = system: Rattus norvegicus; assay: Ex vivo inhibitory activity at an peroral dose of 25 mg/Kg against LTB4 biosynthesis in rat blood, after pretreatment period of 3h; assay type: functional; details: po
[6] = species: Homo sapiens; assay: Compound at 10 uM was tested in vitro for the inhibition of LTB4 biosynthesis in calcium ionophore-stimulated human whole blood leukocyte (HBL) assay; assay type: functional
[7] = target: T1, Polyunsaturated fatty acid 5-lipoxygenase (Rattus norvegicus); assay: Ex vivo inhibitory activity at an peroral dose of 10 mg/Kg against LTB4 biosynthesis in rat blood, after pretreatment period of 3h; assay type: functional
[8] = system: Rattus norvegicus; assay: Ex vivo inhibitory activity at an peroral dose of 5 mg/Kg against LTB4 biosynthesis in rat blood, after pretreatment period of 6 hr; assay type: functional; details: po
[9] = system: Rattus norvegicus; assay: Activity against LTB4 biosynthesis in the rat RPAR pleurisy model po (25 mg/kg); assay type: functional
[10] = system: Cavia porcellus; assay: Intravenous effective dose against antigen induced bronchoconstriction in guinea pig; assay type: functional
[11] = species: Rattus norvegicus; assay: Oral effective dose against LTB4 biosynthesis in the rat RPAR pleurisy model; assay type: functional
[12] = system: Rattus norvegicus; assay: Ex vivo inhibitory activity at an peroral dose of 1 mg/Kg against LTB4 biosynthesis in rat blood, after pretreatment period of 6 hr; assay type: functional; details: po
[13] = species: Homo sapiens; assay: In vitro inhibitory concentration against LTB4 biosynthesis in calcium ionophore-stimulated human whole blood leukocyte (HBL) assay; assay type: functional
[14] = species: Cavia porcellus; assay: Oral effective dose against antigen induced bronchoconstriction in the guinea pig; assay type: functional
[15] = species: Rattus norvegicus; assay: Ex vivo oral effective dose against LTB4 biosynthesis in rat blood, after pretreatment period of 3h; assay type: functional

Structure (SMILES)	inhibition [1]	inhibition at 1 µM [3]	further results
NC(=O)N(O)Cc1cccc(OCc2csc(-c3ccccc3)n2)c1	80%	66%	inhibition [2]: 40%; ED50 [4]: 6 mg/kg
Cc1oc(-c2ccccc2)nc1CCOc1ccc(C(C)N(O)C(N)=O)cc1 (configuration not stated)	–	0%	inhibition in vivo at 25 mg/kg [5]: 57%; inhibition at 10 µM [6]: 60%
Cc1oc(-c2ccc(F)cc2)nc1CCOc1ccc(CN(O)C(N)=O)cc1	–	70%	inhibition [7]: 66%
Cc1oc(-c2ccc(C(F)(F)F)cc2)nc1CCOc1ccc(CN(O)C(N)=O)cc1F	–	36%	–
Cc1oc(-c2ccco2)nc1CCOc1ccc(CN(O)C(N)=O)cc1	–	64%	inhibition [7]: 41%
NC(=S)N(O)Cc1ccc(OCc2csc(-c3ccc(Cl)cc3)n2)cc1	–	57%	inhibition in vivo at 5 mg/kg [8]: 0%
Cc1oc(-c2cccc(F)c2)nc1CCOc1ccc(CN(O)C(N)=O)cc1	–	63%	inhibition [7]: 80%
Cc1oc(-c2ccccc2F)nc1CCOc1ccc(CN(O)C(N)=O)cc1	–	54%	inhibition [7]: 71%
Cc1oc(-c2ccccc2)nc1CCOc1cccc(C(C)N(O)C(N)=O)c1 (configuration not stated)	–	34%	–
Cc1oc(-c2ccccc2)nc1COc1cccc(C(C)N(O)C(N)=O)c1 (configuration not stated)	–	10%	inhibition at 10 µM [6]: 80%
Cc1oc(-c2cccc(C(F)(F)F)c2)nc1COc1cccc(CN(O)C(N)=O)c1	0%	51%	–
Cc1oc(-c2ccc(Cl)cc2)nc1COc1cccc(CN(O)C(N)=O)c1	38%	77%	inhibition [2]: 47%
Cc1oc(-c2ccccc2)nc1CCOc1ccc(CN(O)C(N)=O)cc1F	–	71%	inhibition [7]: 52%; Inhibition [9]: 58%
Cc1oc(-c2ccccc2)nc1COc1ccc(CN(O)C(N)=O)cc1	0%	50%	inhibition [2]: 36%; inhibition [7]: 84%; Inhibition [9]: 69%
Cc1oc(-c2ccc(F)cc2)nc1COc1cccc(CN(O)C(N)=O)c1	–	74%	inhibition [2]: 37%; ED50 [10]: 5 mg/kg
NC(=O)N(O)Cc1ccc(OCCc2csc(-c3ccc(C(F)(F)F)cc3)n2)cc1	–	57%	inhibition in vivo at 5 mg/kg [8]: 0%
COc1ccc(-c2nc(COc3ccc(CN(O)C(N)=O)cc3)cs2)cc1	69%	56%	–
Cc1oc(-c2ccccc2)nc1CCOc1cccc(CN(O)C(N)=O)c1	–	51%	inhibition [7]: 0%
COc1ccc(-c2nc(COc3cccc(CN(O)C(N)=O)c3)cs2)cc1	0%	50%	–
Cc1oc(-c2cccs2)nc1CCOc1ccc(CN(O)C(N)=O)cc1	–	64%	inhibition [7]: 24%
CCCCCCc1nc(CCOc2ccc(CN(O)C(N)=O)cc2)c(C)o1	–	44%	–
NC(=O)N(O)Cc1ccc(OCc2csc(-c3ccccc3)n2)cc1	67%	44%	–
COc1cc(CN(O)C(N)=O)ccc1OCc1nc(-c2ccccc2)oc1C	–	19%	inhibition at 10 µM [6]: 81%
Cc1oc(-c2ccc(C(F)(F)F)cc2)nc1CCOc1ccc(CN(O)C(N)=O)cc1	–	–	inhibition [7]: 67%; ED50 [11]: 5 mg/kg; inhibition in vivo at 1 mg/kg [12]: 57%
NC(=O)N(O)Cc1ccc(OCc2coc(-c3ccc(C(F)(F)F)cc3)n2)cc1	68%	32%	–

Structure (SMILES)	inhibition [1]	inhibition at 1 µM [3]	further results
Cc1oc(-c2ccc(C(F)(F)F)cc2)nc1COc1cccc(CN(O)C(N)=O)c1	–	48%	inhibition [2]: 59%; inhibition in vivo at 5 mg/kg [8]: 55%
NC(=O)N(O)Cc1ccc(OCCc2coc(-c3ccccc3)n2)cc1	–	47%	inhibition in vivo at 5 mg/kg [8]: 0%
NC(=S)N(O)Cc1cccc(OCc2coc(-c3ccc(F)cc3)n2)c1	0%	61%	–
Cc1oc(-c2ccc(C(F)(F)F)cc2)nc1COc1ccc(CN(O)C(N)=O)cc1	–	34%	inhibition [2]: 45%; inhibition in vivo at 5 mg/kg [8]: 69%
NC(=O)N(O)Cc1cccc(OCc2csc(-c3ccc(Cl)cc3)n2)c1	63%	68%	inhibition [2]: 0%
NC(=O)N(O)Cc1ccc(OCc2csc(-c3ccc(Cl)cc3)n2)cc1	0%	71%	–
NC(=O)N(O)Cc1ccc(OCCc2noc(-c3ccccc3)n2)cc1	–	70%	Inhibition [9]: 19%; inhibition in vivo at 5 mg/kg [8]: 59%
Cc1ccc(-c2nc(CCOc3ccc(CN(O)C(N)=O)cc3)c(C)o2)cc1	–	40%	Inhibition [9]: 48%; inhibition in vivo at 5 mg/kg [8]: 0%
Cc1oc(-c2ccccc2)nc1COc1cc(F)cc(CN(O)C(N)=O)c1	–	70%	inhibition [2]: 16%; inhibition in vivo at 5 mg/kg [8]: 52%
COc1cc(CN(O)C(N)=O)cc(OCc2nc(-c3ccc(C(F)(F)F)cc3)oc2C)c1	–	0%	inhibition at 10 µM [6]: 59%
COc1ccc(-c2nc(CCOc3ccc(CN(O)C(N)=O)cc3)c(C)o2)cc1	–	57%	inhibition in vivo at 25 mg/kg [5]: 32%; Inhibition [9]: 38%
NC(=O)N(O)Cc1ccc(OCc2coc(-c3ccccc3)n2)cc1	–	58%	inhibition [2]: 60%; inhibition in vivo at 5 mg/kg [8]: 60%
Cc1oc(-c2cc(C(F)(F)F)cc(C(F)(F)F)c2)nc1COc1cccc(CN(O)C(N)=O)c1	–	15%	inhibition at 10 µM [6]: 57%
Cc1oc(-c2ccc(C(F)(F)F)cc2)nc1COc1cc(F)cc(CN(O)C(N)=O)c1	–	15%	inhibition at 10 µM [6]: 85%
Cc1oc(-c2cccc3ccccc23)nc1CCOc1ccc(CN(O)C(N)=O)cc1	–	42%	–
Cc1oc(-c2ccccc2)nc1COc1ccc(C(C)N(O)C(N)=O)cc1 (configuration not stated)	–	17%	inhibition at 10 µM [6]: 57%
Cc1oc(-c2ccccc2)nc1COc1ccc(CN(O)C(N)=O)cc1F	–	47%	inhibition [7]: 66%; Inhibition [9]: 27%
Cc1oc(-c2ccccc2)nc1CCOc1ccc(CN(O)C(N)=O)cc1	–	55%	inhibition in vivo at 25 mg/kg [5]: 79%; inhibition [2]: 69%; inhibition [7]: 0%
Cc1oc(-c2ccc(SC(F)(F)F)cc2)nc1CCOc1ccc(CN(O)C(N)=O)cc1	0%	50%	–
CC(c1cc2ccccc2s1)N(O)C(N)=O (configuration not stated) [ZILEUTON]	–	–	IC50 [13]: 3 µM; ED50 [14]: 46 mg/kg; ED50 [15]: 10.2 mg/kg; ED50 [11]: 7.8 mg/kg; ED50 [4]: 19 mg/kg
Cc1oc(-c2ccccc2)nc1COc1cccc(CN(O)C(N)=O)c1	0%	52%	inhibition in vivo at 25 mg/kg [5]: 78%; inhibition [2]: 33%; Inhibition [9]: 79%
NC(=O)N(O)Cc1cccc(OCCc2csc(-c3ccc(C(F)(F)F)cc3)n2)c1	0%	30%	–
Cc1oc(-c2ccccc2)nc1COc1ccc(CN(O)C(N)=O)cc1Cl	–	31%	inhibition [7]: 69%
NC(=O)N(O)Cc1ccc(OCCc2csc(-c3ccccc3)n2)cc1	–	19%	–
NC(=O)N(O)Cc1ccc(OCc2csc(-c3ccc(C(F)(F)F)cc3)n2)cc1	0%	56%	–
